Laboratory results reported in US20140023611A1 (priority 2010, published 2014).
Where a name gives a salt, the structure may show the parent alone.

tested on: Uptake of Phosphorus from the Intestine; assay: In vivo co-dosing in chow (urine P out / P consumed); settings: Rattus norvegicus, feed or water; rats, compound in chow; mean drug dose 50 mg/kg/day; read-out: Mean % inhibition Urine Pout/P consumed
Description: Male, 7-week-old Sprague-Dawley rats (Charles-River laboratories international, Hollister, Calif.) were allowed to acclimate for a minimum of 3 days. The experiment was initiated by switching animals to a synthetic diet (0.6% phosphorus and 0.6% calcium, Harlan Teklad TD.84122) for four days. After this time, the animals were placed into metabolic cages for daily monitoring of food and water consumption, as well as urine and fecal collections. Test compounds were incorporated into the powdered diet listed above containing 3% chocolate flavoring (w/w, BioServ #7345) at 1.3 mg test compound per gram of diet to achieve an average daily nominal dose of 100 mg/kg/day. The actual dose received by each animal was later determined by measuring prepared diet consumption and body weight. Urine samples were collected in three daily periods from 24-48, 48-72, and 72-96 hours of drug dosing. Averaging these three 24 h periods allows for the more representative measurements of urination, fecal excretion, food consumption and water uptake for each animal. Phosphorus levels in the urine were determined by anion exchange chromatography using a Dionex ICS-3000 ion chromatography system. Urine samples were diluted 1:500 or 1:1000 and injected onto an IonPac AS18 analytical column (2×250 mm) using a potassium hydroxide eluent. Elution of urine phosphate ions was monitored via conductivity detector and reported as ppm relative to a standard ion solution containing phosphate. Daily urinary P output relative to the P consumed in the prepared diet for each animal was calculated. The percentage inhibition of phosphorus absorption was estimated by determining the reduction of this ratio compared to the control group (animals with no drug in chow). The differences between the means of control and treated groups were evaluated by t tests. In all experiments, one group was always included that had Renvela powder blended into their chow at 0.9% targeting a dose of 750 mg/kg.

| SMILES | inhibition in vivo at 50 mg/kg/day [%] |
| --- | --- |
| CCN(CC)c1ccc(NC(=O)c2cccc(CCCOCCOCCOCCOCCC(=O)O)c2)c(-c2cc(C(=O)NCc3cccc(C(F)(F)F)c3)ccn2)c1 [Example 251, 16-(3-(4-(diethylamino)-2-(4-(3-(trifluoromethyl)benzylcarbamoyl)pyridin-2-yl)phenylcarbamoyl)phenyl)-4,7,10,13-tetraoxahexadecan-1-oic acid] | ≤ 10 |
| CCN(CC)c1ccc(NC(=O)c2cccc(CCCOCCOCCOCCOCCNS(=O)(=O)c3ccc(C(=O)N(CCOC)CCOCCOCCOCCOCCOCCOCCOC)cc3)c2)c(-c2cc(C(=O)NCc3cccc(C(F)(F)F)c3)ccn2)c1 [Example 272, 2-(2-(3-(1-(4-(2,5,8,11,14,17,20-heptaoxadocosan-22-yl(2-methoxyethyl)carbamoyl)phenylsulfonamido)-3,6,9,12-tetraoxapentadecan-15-yl)benzamido)-5-(diethylamino)phenyl)-N-(3-(trifluoromethyl)benzyl)isonicotinamide] | ≤ 10 |
| CCN(CC)c1ccc(NC(=O)c2cccc(CCCOCCOCCOCCOCCOCCOCCOCCOCCOCCC(=O)O)c2)c(-c2cc(C(=O)NCc3cccc(C(F)(F)F)c3)ccn2)c1 [Example 298, 31-(3-(4-(diethylamino)-2-(4-(3-(trifluoromethyl)benzylcarbamoyl)pyridin-2-yl)phenylcarbamoyl)phenyl)-4,7,10,13,16,19,22,25,28-nonaoxahentriacontan-1-oic acid] | 10 to 30 |
| CCN(CC)c1ccc(NC(=O)c2cccc(CCCOCCOCCOCCOCCOCCOCCC(=O)O)c2)c(-c2cc(C(=O)NCc3cccc(C(F)(F)F)c3)ccn2)c1 [Example 299, 22-(3-(4-(diethylamino)-2-(4-(3-(trifluoromethyl)benzylcarbamoyl)pyridin-2-yl)phenylcarbamoyl)phenyl)-4,7,10,13,16,19-hexaoxadocosan-1-oic acid] | 10 to 30 |
| CCN(CC)c1ccc(NC(=O)c2cccc(CCCOCCOCCOCCOCCOCCC(=O)O)c2)c(-c2cc(C(=O)NCc3cccc(C(F)(F)F)c3)ccn2)c1 [Example 300, 19-(3-(4-(diethylamino)-2-(4-(3-(trifluoromethyl)benzylcarbamoyl)pyridin-2-yl)phenylcarbamoyl)phenyl)-4,7,10,13,16-pentaoxanonadecan-1-oic acid] | ≤ 10 |

same assay, conditions: Rattus norvegicus, feed or water; rats, compound in chow; mean drug dose 90 mg/kg/day; read-out: Mean % inhibition Urine Pout/P consumed

| SMILES | inhibition in vivo at 90 mg/kg/day [%] |
| --- | --- |
| O=C(O)CCOCCOCCOCCOCCCc1cccc(C(=O)Nc2ccc(N3CCCCC3)cc2-c2cc(C(=O)N[C@H]3CCCc4ccccc43)ccn2)c1 [Example 252, 3-(2-(2-(2-(3-(3-((2-(4-(((S)-1,2,3,4-tetrahydronaphthalen-1-yl)carbamoyl)pyridin-2-yl)-4-(piperidin-1-yl)phenyl)carbamoyl)phenyl)propoxy)ethoxy)ethoxy)ethoxy)propanoic acid] | 10 to 30 |

same assay, conditions: Rattus norvegicus, feed or water; rats, compound in chow; mean drug dose 100 mg/kg/day; read-out: Mean % inhibition Urine Pout/P consumed

| SMILES | inhibition in vivo at 100 mg/kg/day [%] |
| --- | --- |
| O=C(O)CCOCCOCCOCCOCCSCc1cccc(C(=O)Nc2ccc(N3CCCCC3)cc2-c2cc(C(=O)N[C@H]3CCCc4ccccc43)ccn2)c1 [Example 142, 1-(3-{[4-(piperidin-1-yl)-2-(4-{[(1S)-1,2,3,4-tetrahydronaphthalen-1-yl]carbamoyl}pyridin-2-yl)phenyl]carbamoyl}phenyl)-5,8,11,14-tetraoxa-2-thiaheptadecan-17-oic acid] | ≤ 10 |
| CCN(CC)c1ccc(NC(=O)c2cccc(CSc3cccc(CC(=O)N(C)CCOCCOCCOCCC(=O)O)c3)c2)c(-c2cc(C(=O)NCc3cccc(C(F)(F)F)c3)ccn2)c1 [Example 144, 3-(2-(2-(2-(2-(3-(3-(4-(diethylamino)-2-(4-(3-(trifluoromethyl)benzylcarbamoyl)pyridin-2-yl)phenylcarbamoyl)benzylthio)phenyl)-N-methylacetamido)ethoxy)ethoxy)ethoxy)propanoic acid] | ≤ 10 |
| CCN(CC)c1ccc(NC(=O)c2cccc(CSCCOCCOCCOCCOCCC(=O)O)c2)c(-c2cc(C(=O)NCc3cccc(C(F)(F)F)c3)ccn2)c1 [Example 162, 1-(3-(4-(diethylamino)-2-(4-(3-(trifluoromethyl)benzylcarbamoyl)pyridin-2-yl)phenylcarbamoyl)phenyl)-5,8,11,14-tetraoxa-2-thiaheptadecan-17-oic acid] | 10 to 30 |
| CCCN(CCC)c1ccc(NC(=O)c2cccc(COCCOCCOCCOCCOCCOCCOCCOCCOC)c2)c(-c2cc(C(=O)NCc3cccc(C(F)(F)F)c3)ccn2)c1 [Example 200, 2-(2-(3-(2,5,8,11,14,17,20,23,26-nonaoxaheptacosyl)benzamido)-5-(dipropylamino)phenyl)-N-(3-(trifluoromethyl)benzyl)isonicotinamide] | 10 to 30 |
| CCN(CC)c1ccc(NC(=O)c2cccc(CCCOCCOCCOCCOCCOCCOCCOCCOCCOC)c2)c(-c2cc(C(=O)N[C@H]3CCCc4ccccc43)ccn2)c1 [Example 261, (S)-2-(2-(3-(2,5,8,11,14,17,20,23,26-nonaoxanonacosan-29-yl)benzamido)-5-(diethylamino)phenyl)-N-(1,2,3,4-tetrahydronaphthalen-1-yl)isonicotinamide] | 10 to 30 |
| CCN(CC)c1ccc(NC(=O)c2cccc(CCCOCCOCCOCCOCCOCCOCCOCCOCCOC)c2)c(-c2cc(C(=O)NCc3cccc(C(F)(F)F)c3)ccn2)c1 [Example 269, 2-(2-(3-(2,5,8,11,14,17,20,23,26-nonaoxanonacosan-29-yl)benzamido)-5-(diethylamino)phenyl)-N-(3-(trifluoromethyl)benzyl)isonicotinamide] | ≤ 10 |
| CCN(CC)c1ccc(NC(=O)c2cccc(C(=O)N(C)CCN(CCOC)CCOCCOCCOCCOCCOCCOCCOC)c2)c(-c2cc(C(=O)NCc3cccc(C(F)(F)F)c3)ccn2)c1 [Example 335, N^1-(4-(Diethylamino)-2-(4-(3-(trifluoromethyl)benzylcarbamoyl)pyridin-2-yl)phenyl)-N^3-(23-(2-methoxyethyl)-2,5,8,11,14,17,20-heptaoxa-23-azapentacosan-25-yl)-N^3-methylisophthalamide, trifluoroacetate] | ≤ 10 |

same assay, conditions: Rattus norvegicus, feed or water; rats, compound in chow; mean drug dose 110 mg/kg/day; read-out: Mean % inhibition Urine Pout/P consumed

| SMILES | inhibition in vivo at 110 mg/kg/day [%] |
| --- | --- |
| CCN(CC)c1ccc(NC(=O)c2cccc(C(=O)N(C)CCOCCOCCOCCC(=O)O)c2)c(-c2cc(C(=O)NCc3cccc(C(F)(F)F)c3)ccn2)c1 [Example 188, 1-(3-((4-(diethylamino)-2-(4-((3-(trifluoromethyl)benzyl)carbamoyl)pyridin-2-yl)phenyl)carbamoyl)phenyl)-2-methyl-1-oxo-5,8,11-trioxa-2-azatetradecan-14-oic acid] | 10 to 30 |

same assay, conditions: Rattus norvegicus, feed or water; rats, compound in chow; mean drug dose 120 mg/kg/day; read-out: Mean % inhibition Urine Pout/P consumed

| SMILES | inhibition in vivo at 120 mg/kg/day [%] |
| --- | --- |
| CCN(CC)c1ccc(NC(=O)c2cccc(CSCCOCCOCCOCCOCCOCCOCCOCCOCCC(=O)O)c2)c(-c2cc(C(=O)N[C@H]3CCCc4ccccc43)ccn2)c1 [Example 161, (S)-1-(3-(4-(diethylamino)-2-(4-(1,2,3,4-tetrahydronaphthalen-1-ylcarbamoyl)pyridin-2-yl)phenylcarbamoyl)phenyl)-5,8,11,14,17,20,23,26-octaoxa-2-thianonacosan-29-oic acid] | ≤ 10 |
| CCN(CC)c1ccc(NC(=O)c2cccc(CSCCOCCOCCOCCOCCOCCOCCOCCOCCC(=O)O)c2)c(-c2cc(C(=O)NCc3cccc(C(F)(F)F)c3)ccn2)c1 [Example 166, 1-(3-(4-(diethylamino)-2-(4-(3-(trifluoromethyl)benzylcarbamoyl)pyridin-2-yl)phenylcarbamoyl)phenyl)-5,8,11,14,17,20,23,26-octaoxa-2-thianonacosan-29-oic acid] | 10 to 30 |
| O=C(O)CCOCCOCCOCCNC(=O)c1cccc2c1ccn2Cc1cccc(C(=O)Nc2ccc(N3CCCCC3)cc2-c2cc(C(=O)N[C@H]3CCCc4ccccc43)ccn2)c1 [Example 181, (S)-1-oxo-1-(1-(3-(4-(piperidin-1-yl)-2-(4-(1,2,3,4-tetrahydronaphthalen-1-ylcarbamoyl)pyridin-2-yl)phenylcarbamoyl)benzyl)-1H-indol-4-yl)-5,8,11-trioxa-2-azatetradecan-14-oic acid] | ≤ 10 |
| CCN(CC)c1ccc(NC(=O)c2cccc(CSCCOCCOCCOCCOCCOCCOCCOCCOC)c2)c(-c2cc(C(=O)NCc3cccc(C(F)(F)F)c3)ccn2)c1 [Example 265, 2-(2-(3-(2,5,8,11,14,17,20,23-octaoxa-26-thiaheptacosan-27-yl)benzamido)-5-(diethylamino)phenyl)-N-(3-(trifluoromethyl)benzyl)isonicotinamide] | ≤ 10 |

same assay, conditions: Rattus norvegicus, feed or water; rats, compound in chow; mean drug dose 130 mg/kg/day; read-out: Mean % inhibition Urine Pout/P consumed

| SMILES | inhibition in vivo at 130 mg/kg/day [%] |
| --- | --- |
| CCN(CC)c1ccc(NC(=O)c2cccc(CSCCOCCOCCOCCOCCOCCOCCOCCOC)c2)c(-c2cc(C(=O)N[C@H]3CCCc4ccccc43)ccn2)c1 [Example 286, (S)-2-(2-(3-(2,5,8,11,14,17,20,23-octaoxa-26-thiaheptacosan-27-yl)benzamido)-5-(diethylamino)phenyl)-N-(1,2,3,4-tetrahydronaphthalen-1-yl)isonicotinamide] | 10 to 30 |
